Source: patent publication US7781439B2, “Pyrazolopyrimidines” (Bayer CropScience AG, priority 2005, dated 2010)
Read-outs that look alike come from different tables or passages of the source. Marks after values point to notes of the source that are not given here. Each block holds one compound with its values, some of them ahead of it.

Test: log P determination
Format: physicochemical
Settings: for log P: intermediates of formula drawing 23, table
[1] = EEC Directive 79/831 Annex V. A8 by HPLC (gradient method, acetonitrile/0.1% aqueous phosphoric acid)
[2] = starting materials and intermediates, log P / log P*, read-out: log P
[3] = values marked *, no footnote carries the single asterisk, general footnote: HPLC gradient method, acetonitrile/0.1% aqueous phosphoric acid
[4] = values printed without asterisk, EEC Directive 79/831 Annex V. A8, HPLC gradient method, acetonitrile/0.1% aqueous phosphoric acid (general footnote)
[5] = values marked *, HPLC, gradient method, acetonitrile/0.1% aqueous phosphoric acid, EEC Directive 79/831 Annex V. A8
[6] = HPLC, gradient method, acetonitrile/0.1% aqueous phosphoric acid (EEC Directive 79/831 Annex V. A8)
[7] = values marked **, EEC Directive 79/831 Annex V.A8, HPLC gradient method, acetonitrile/0.1% aqueous formic acid

Compound: COC(=O)c1cnn2c(NC(C)C(C)C)c(-c3c(F)cc(F)cc3F)c(Cl)nc12 (stereo not drawn)
log P: 4.05

Compound: COC(=O)c1cnn2c(NC(C)C(C)(C)C)c(-c3c(F)cc(F)cc3F)c(Cl)nc12 (stereo not drawn)
log P: 4.93

Compound: COC(=O)c1cnn2c(N3CCC(C)CC3)c(-c3c(F)cccc3Cl)c(Cl)nc12 [(CH2—CH2—CHCH3—CH2—CH2), 2-Cl-6-F-phenyl]
log P: 4.61

Compound: COC(=O)c1cnn2c(NC(C)C(F)(F)F)c(-c3c(F)cc(F)cc3F)c(Cl)nc12 (stereo not drawn) [CH(CH3)(CF3), H, 2,4,6-trifluorophenyl]
log P: 3.53

Compound: COC(=O)c1cnn2c(NC(C)C(F)(F)F)c(-c3ccc(F)cc3Cl)c(Cl)nc12 (stereo not drawn) [CH(CH3)(CF3), H, 2-Cl-4-F-phenyl]
log P: 3.75

Compound: COC(=O)c1cnn2c(NC(C)C(C)(C)C)c(-c3ccc(F)cc3Cl)c(Cl)nc12 (stereo not drawn) [CH(CH3)—C(CH3)3, H, 2-Cl-4-F-phenyl]
log P: 4.68

Compound: COC(=O)c1cnn2c(NC(C)C(C)(C)C)c(-c3c(F)cccc3Cl)c(Cl)nc12 (stereo not drawn) [CH(CH3)—C(CH3)3, H, 2-Cl-6-F-phenyl]
log P: 4.51

Compound: COC(=O)c1cnn2c(NC(C)C(C)(C)C)c(-c3ccccc3Cl)c(Cl)nc12 (stereo not drawn) [CH(CH3)—C(CH3)3, H, 2-Cl-phenyl]
log P: 4.61

Compound: COC(=O)c1cnn2c(NC(C)C(C)(C)C)c(-c3ncncc3F)c(Cl)nc12 (stereo not drawn) [CH(CH3)—C(CH3)3, H, 5-F-pyrimidin-4-yl]
log P: 3.15

Compound: COC(=O)c1cnn2c(NC(C)C(C)C)c(-c3c(F)cccc3Cl)c(Cl)nc12 (stereo not drawn) [CH(CH3)—CH(CH3)2, H, 2-Cl-6-F-phenyl]
log P: 4.12

Compound: C[C@@H](Nc1c(-c2c(F)cc(F)cc2F)c(Cl)nc2c(C(=O)NS(C)(=O)=O)cnn12)C(C)(C)C [Example 9]
log p [4]: 4.16

Compound: C[C@@H](Nc1c(-c2ccc(F)cc2Cl)c(Cl)nc2c(C(=O)NS(=O)(=O)C(F)(F)F)cnn12)C(C)(C)C [Example 14]
log p [4]: 3.77

Compound: C[C@@H](Nc1c(-c2c(F)cc(F)cc2Cl)c(Cl)nc2c(C(=O)NS(C)(=O)=O)cnn12)C(C)(C)C [Example 33]
log p [4]: 4.38

Compound: C[C@@H](Nc1c(-c2c(F)cc(Cl)cc2F)c(Cl)nc2c(C(=O)NS(C)(=O)=O)cnn12)C(C)(C)C [Example 45]
log p [3]: 4.55*

Compound: CC1CCN(c2c(-c3c(F)cccc3Cl)c(Cl)nc3c(C(=O)NS(C)(=O)=O)cnn23)CC1 [Example 255]
log p [3]: 4.2*

Compound: CC1CCN(c2c(-c3c(F)cc(F)cc3F)c(Cl)nc3c(C(=O)NS(C)(=O)=O)cnn23)CC1 [Example 261]
log p [3]: 4.07*

Compound: CC1CCN(c2c(-c3c(F)cc(F)cc3Cl)c(Cl)nc3c(C(=O)NS(C)(=O)=O)cnn23)CC1 [Example 285]
log p [3]: 4.34*

Compound: CC(C)Nc1c(-c2c(F)cc(Cl)cc2F)c(Cl)nc2c(C(=O)NS(C)(=O)=O)cnn12 [Example 381]
log p [5]: 3.68*

Compound: CC(C)CNc1c(-c2c(F)cc(F)cc2F)c(Cl)nc2c(C(=O)NS(C)(=O)=O)cnn12 [Example 429]
log p [5]: 3.59*

Compound: CC(C)CNc1c(-c2c(F)cc(Cl)cc2F)c(Cl)nc2c(C(=O)NS(C)(=O)=O)cnn12 [Example 465]
log p [5]: 3.97*

Compound: CC(C)(C)CNc1c(-c2c(F)cccc2Cl)c(Cl)nc2c(C(=O)NS(C)(=O)=O)cnn12 [Example 507]
log p [5]: 4.04*

Compound: CC(C)(C)CNc1c(-c2c(F)cc(F)cc2F)c(Cl)nc2c(C(=O)NS(C)(=O)=O)cnn12 [Example 513]
log p [5]: 3.9*

Compound: CC(C)(C)CNc1c(-c2ccccc2Cl)c(Cl)nc2c(C(=O)NS(C)(=O)=O)cnn12 [Example 525]
log p [5]: 4.17*

Compound: CC(C)(C)CNc1c(-c2c(F)cc(Cl)cc2F)c(Cl)nc2c(C(=O)NS(C)(=O)=O)cnn12 [Example 549]
log p [5]: 4.31*

Compound: CNC(=O)NC(=O)c1cnn2c(N[C@H](C)C(C)C)c(-c3ccc(F)cc3C)c(Cl)nc12 [Example 1178]
log p [6]: 4.42

Compound: COC(=O)c1cnn2c(Cl)c(-c3ccc(Cl)cc3Cl)c(Cl)nc12 [Methyl 5,7-dichloro-6-(2,4-dichlorophenyl)pyrazolo[1,5-a]pyrimidine-3-carboxylate]
log p [2]: 3.86

Compound: COC(=O)c1cnn2c(O)c(-c3ccc(Cl)cc3Cl)c(O)nc12 [Methyl 6-(2,4-dichlorophenyl)-5,7-dihydroxypyrazolo[1,5-a]pyrimidine-3-carboxylate]
log p [2]: 1.21

Compound: Cc1cc(F)c(-c2c(Cl)nc3c(C(=O)NS(C)(=O)=O)cnn3c2N[C@H](C)C(C)(C)C)c(F)c1 [compound 51]
log p [7]: 4.38**

Compound: CC(Nc1c(-c2ccccc2)c(Cl)nc2c(C(=O)Nc3ccon3)cnn12)C(C)(C)C (stereo not drawn) [compound 71]
log p [7]: 4.88**

Compound: Cc1cc(F)ccc1-c1c(Cl)nc2c(C(=O)Nc3ncccn3)cnn2c1NC(C)C(C)C (stereo not drawn) [compound 1179]
log p [6]: 6.61

Compound: CC(C)C(C)Nc1c(-c2ccc(F)cc2F)c(Cl)nc2c(C(=O)NN3CCOCC3)cnn12 (stereo not drawn) [compound 1180]
log p [6]: 3.46

Compound: Cc1ccc(-c2c(Cl)nc3c(C(=O)NN4CCOCC4)cnn3c2NC(C)C(C)(C)C)c(Cl)c1 (stereo not drawn) [compound 1181]
log p [6]: 4.41

Compound: CC(Nc1c(-c2ccc(F)cc2F)c(Cl)nc2c(C(=O)NN3CCOCC3)cnn12)C(C)(C)C (stereo not drawn) [compound 1182]
log p [6]: 3.76

Compound: Cc1ccsc1-c1c(Cl)nc2c(C(=O)NN3CCOCC3)cnn2c1NC(C)C(C)C (stereo not drawn) [compound 1183]
log p [6]: 3.63

Compound: CC(C)C(C)Nc1c(-c2ccc(F)cc2Cl)c(Cl)nc2c(C(=O)Nc3ccn(C)n3)cnn12 (stereo not drawn) [compound 1184]
log p [1]: 4.35

Results, then the compound that gave them:

log p [1]: 4.85
Compound: CC(C)C(C)Nc1c(-c2c(Cl)cc(OC(F)(F)F)cc2Cl)c(Cl)nc2c(C(=O)NS(C)(=O)=O)cnn12 (racemic) [compound 1198]

log p [2]: 3.3
Compound: CC(C)Nc1c(-c2ccc(Cl)cc2Cl)c(Cl)nc2c(C(=O)O)cnn12 [5-Chloro-6-(2,4-dichlorophenyl)-7-isopropylaminopyrazolo[1,5-a]pyrimidine-3-carboxylic acid]

log P: 4.31
Compound: COC(=O)c1cnn2c(NC(C)C(C)C)c(-c3ccc(F)cc3Cl)c(Cl)nc12 (stereo not drawn) [CH(CH3)—CH(CH3)2, H, 2-Cl-4-F-phenyl]

log P: 4.21
Compound: COC(=O)c1cnn2c(NC(C)C(C)C)c(-c3ccccc3Cl)c(Cl)nc12 (stereo not drawn) [CH(CH3)—CH(CH3)2, H, 2-Cl-phenyl]

log p [3]: 4.19*
Compound: C[C@@H](Nc1c(-c2c(F)cccc2Cl)c(Cl)nc2c(C(=O)NS(C)(=O)=O)cnn12)C(C)(C)C [Example 3]

log p [4]: 4.44
Compound: C[C@@H](Nc1c(-c2ccc(F)cc2Cl)c(Cl)nc2c(C(=O)NS(C)(=O)=O)cnn12)C(C)(C)C [Example 15]

log p [3]: 4.36*
Compound: C[C@@H](Nc1c(-c2ccccc2Cl)c(Cl)nc2c(C(=O)NS(C)(=O)=O)cnn12)C(C)(C)C [Example 21]

log p [4]: 3.93
Compound: C[C@@H](Nc1c(-c2ccc(Cl)cc2Cl)c(Cl)nc2c(C(=O)NS(=O)(=O)C(F)(F)F)cnn12)C(C)(C)C [Example 38]

log p [3]: 4.89*
Compound: C[C@@H](Nc1c(-c2ccc(Cl)cc2Cl)c(Cl)nc2c(C(=O)NS(C)(=O)=O)cnn12)C(C)(C)C [Example 39]

log p [4]: 3.99
Compound: C[C@H](Nc1c(-c2ccc(Cl)cc2Cl)c(Cl)nc2c(C(=O)NS(C)(=O)=O)cnn12)C(F)(F)F [Example 123]

log p [3]: 3.9*
Compound: CC(C)[C@@H](C)Nc1c(-c2c(F)cccc2Cl)c(Cl)nc2c(C(=O)NS(C)(=O)=O)cnn12 [Example 171]

log p [4]: 4.18
Compound: CC(C)[C@@H](C)Nc1c(-c2ccc(F)cc2Cl)c(Cl)nc2c(C(=O)NS(C)(=O)=O)cnn12 [Example 183]

log p [3]: 4.01*
Compound: CC(C)[C@@H](C)Nc1c(-c2ccccc2Cl)c(Cl)nc2c(C(=O)NS(C)(=O)=O)cnn12 [Example 189]

log p [3]: 4.05*
Compound: CC(C)[C@@H](C)Nc1c(-c2c(F)cc(F)cc2Cl)c(Cl)nc2c(C(=O)NS(C)(=O)=O)cnn12 [Example 201]

log p [3]: 4.55*
Compound: CC(C)[C@@H](C)Nc1c(-c2ccc(Cl)cc2Cl)c(Cl)nc2c(C(=O)NS(C)(=O)=O)cnn12 [Example 207]

log p [3]: 4.24*
Compound: CC(C)[C@@H](C)Nc1c(-c2c(F)cc(Cl)cc2F)c(Cl)nc2c(C(=O)NS(C)(=O)=O)cnn12 [Example 213]

log p [5]: 3.57*
Compound: CC(C)Nc1c(-c2ccc(F)cc2Cl)c(Cl)nc2c(C(=O)NS(C)(=O)=O)cnn12 [Example 351]

log p [5]: 3.44*
Compound: CC(C)Nc1c(-c2ccccc2Cl)c(Cl)nc2c(C(=O)NS(C)(=O)=O)cnn12 [Example 357]

log p [5]: 3.82*
Compound: CC(C)CNc1c(-c2ccc(F)cc2Cl)c(Cl)nc2c(C(=O)NS(C)(=O)=O)cnn12 [Example 435]

log p [5]: 3.78*
Compound: CC(C)CNc1c(-c2ccccc2Cl)c(Cl)nc2c(C(=O)NS(C)(=O)=O)cnn12 [Example 441]

log p [5]: 4.26*
Compound: CC(C)CNc1c(-c2ccc(Cl)cc2Cl)c(Cl)nc2c(C(=O)NS(C)(=O)=O)cnn12 [Example 459]

log p [5]: 4.19*
Compound: CC(C)(C)CNc1c(-c2ccc(F)cc2Cl)c(Cl)nc2c(C(=O)NS(C)(=O)=O)cnn12 [Example 519]

log p [5]: 4.63*
Compound: CC(C)(C)CNc1c(-c2ccc(Cl)cc2Cl)c(Cl)nc2c(C(=O)NS(C)(=O)=O)cnn12 [Example 543]

log p [2]: 4.07
Compound: COC(=O)c1cnn2c(NC(C)C)c(-c3ccc(Cl)cc3Cl)c(Cl)nc12 [Methyl 5-chloro-6-(2,4-dichlorophenyl)-7-isopropylaminopyrazolo[1,5-a]pyrimidine-3-carboxylate]

log p [7]: 3.87**
Compound: CC(C)[C@@H](C)Nc1c(-c2ccc(Cl)cc2Cl)c(Cl)nc2c(C(=O)NS(=O)(=O)C(F)(F)F)cnn12 [compound 206]

log p [7]: 4.88**
Compound: CCS(=O)(=O)NC(=O)c1cnn2c(N[C@H](C)C(C)C)c(-c3ccc(Cl)cc3Cl)c(Cl)nc12 [compound 208]

log p [7]: 4.08**
Compound: Cc1cc(F)c(-c2c(Cl)nc3c(C(=O)NS(C)(=O)=O)cnn3c2N[C@H](C)C(C)C)c(F)c1 [compound 219]

chromatographic logP [5]: 3.91
Compound: CC(C)Nc1c(-c2ccc(Cl)cc2Cl)c(Cl)nc2c(C(=O)NS(C)(=O)=O)cnn12 [compound 375]
